Tested on: KRAS-mutant PDC tumor spheroid with HUVEC/MSC, viability
Assay: Anticancer human tumor 327498-153-R-J2-PDC patient-derived uterine carcinosarcoma cell line growth inhibition [KRAS2]
Details: for IC50: curve of first compound; for viability, T/C: stronger effect = lower value
Summary of the method: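 KRAS-mutant tumor cells were grown as spheroids with HUVEC endothelial cells and human MSCs as stroma. Targeted agents were tested alone and with KRAS pathway inhibitors. Doses started at or near clinical Cmax, or 10 microM, descending half-log.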

[1] = second compound 0.1 µM, first compound 0.0316 µM
[2] = second compound 0.1 µM, first compound 0.1 µM
[3] = second compound 0.1 µM, first compound 0.316 µM
[4] = second compound 0.1 µM, first compound 1 µM
[5] = second compound 0.1 µM, first compound 3.16 µM
[6] = second compound 0.316 µM, first compound 0.0316 µM
[7] = second compound 0.316 µM, first compound 0.1 µM
[8] = second compound 0.316 µM, first compound 0.316 µM
[9] = second compound 0.316 µM, first compound 1 µM
[10] = second compound 0.316 µM, first compound 3.16 µM
[11] = second compound 1 µM, first compound 0.0316 µM
[12] = second compound 1 µM, first compound 0.1 µM
[13] = second compound 1 µM, first compound 0.316 µM
[14] = second compound 1 µM, first compound 1 µM
[15] = second compound 1 µM, first compound 3.16 µM
[16] = second compound 3.16 µM, first compound 0.0316 µM
[17] = second compound 3.16 µM, first compound 0.1 µM
[18] = second compound 3.16 µM, first compound 0.316 µM
[19] = second compound 3.16 µM, first compound 1 µM
[20] = second compound 3.16 µM, first compound 3.16 µM
[21] = second compound 10 µM, first compound 0.0316 µM
[22] = second compound 10 µM, first compound 0.1 µM
[23] = second compound 10 µM, first compound 0.316 µM
[24] = second compound 10 µM, first compound 1 µM
[25] = second compound 10 µM, first compound 3.16 µM
[26] = second compound 0.1 µM, first compound 0.01 µM
[27] = second compound 0.316 µM, first compound 0.01 µM
[28] = second compound 1 µM, first compound 0.01 µM
[29] = second compound 3.16 µM, first compound 0.01 µM
[30] = second compound 10 µM, first compound 0.01 µM
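Also: spheroids exposed to agents for seven days before reading.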
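For viability, T/C in this document: 100% = DMSO vehicle wells so lower means fewer viable cells.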

For CC1OCC2(CCN(c3cnc(Sc4ccnc(N)c4Cl)c(N)n3)CC2)C1N (stereo not given) + CNCc1ccccc1-c1csc(C(C)Nc2nc(C)nc3cc(OC)c(OC)cc23)c1, which IC50 (second compound 0.1 µM) is on record?
The IC50 was 136 nM.

And the IC50 (second compound 0.316 µM)?
Its IC50 is 109 nM.

What about the IC50 (second compound 1 µM) of the same compound?
The IC50 was 100 nM.

What about the IC50 (second compound 3.16 µM) of the same compound?
The IC50 was less than 31.6 nM.

And the IC50 (second compound 10 µM)?
Its IC50 is less than 31.6 nM.

What about the viability, T/C [1] of the same compound?
Its viability, T/C is 75.4%.

What about the viability, T/C [2] of the same compound?
The viability, T/C was 52.6%.

What about the viability, T/C [3] of the same compound?
Its viability, T/C is 41.2%.

And the viability, T/C [4]?
Its viability, T/C is 34.2%.

What about the viability, T/C [5] of the same compound?
The viability, T/C was 30.9%.

And the viability, T/C (second compound 0.1 µM, first compound 10 µM)?
Its viability, T/C is 27.7%.

What about the viability, T/C [6] of the same compound?
The viability, T/C was 61.4%.

What about the viability, T/C [7] of the same compound?
The viability, T/C was 51.8%.

And the viability, T/C [8]?
The viability, T/C was 36%.

What about the viability, T/C [9] of the same compound?
The viability, T/C was 31%.

What about the viability, T/C [10] of the same compound?
Its viability, T/C is 28%.

What about the viability, T/C (second compound 0.316 µM, first compound 10 µM) of the same compound?
The viability, T/C was 24.6%.

What about the viability, T/C [11] of the same compound?
Its viability, T/C is 65.7%.

What about the viability, T/C [12] of the same compound?
The viability, T/C was 50.1%.

And the viability, T/C [13]?
The viability, T/C was 39.9%.

What about the viability, T/C [14] of the same compound?
The viability, T/C was 31.9%.

And the viability, T/C [15]?
The viability, T/C was 31.7%.

And the viability, T/C (second compound 1 µM, first compound 10 µM)?
Its viability, T/C is 27.5%.

And the viability, T/C [16]?
Its viability, T/C is 0.11%.

And the viability, T/C [17]?
The viability, T/C was 0.09%.

And the viability, T/C [18]?
Its viability, T/C is 0.08%.

What about the viability, T/C [19] of the same compound?
The viability, T/C was 0.06%.

And the viability, T/C [20]?
Its viability, T/C is 0.06%.

What about the viability, T/C (second compound 3.16 µM, first compound 10 µM) of the same compound?
The viability, T/C was 0.17%.

What about the viability, T/C [21] of the same compound?
The viability, T/C was 0.13%.

What about the viability, T/C [22] of the same compound?
Its viability, T/C is 0.18%.

What about the viability, T/C [23] of the same compound?
Its viability, T/C is 0.13%.

What about the viability, T/C [24] of the same compound?
Its viability, T/C is 0.43%.

And the viability, T/C [25]?
The viability, T/C was 0.13%.

And the viability, T/C (second compound 10 µM, first compound 10 µM)?
Its viability, T/C is 0.22%.

Which results are given for CC(=O)Nc1cccc(-n2c(=O)n(C3CC3)c(=O)c3c(Nc4ccc(I)cc4F)n(C)c(=O)c(C)c32)c1 + COc1cc2nc(C)nc(NC(C)c3cc(N)cc(C(F)(F)F)c3)c2cc1OC1CCOC1?
IC50 (second compound 0.1 µM): 3.71 nM; IC50 (second compound 0.316 µM): 2.62 nM; IC50 (second compound 1 µM): 2.12 nM; IC50 (second compound 3.16 µM): 1.05 nM; IC50 (second compound 10 µM): < 0.1 nM; viability, T/C (second compound 0.1 µM, first compound 0.0001 µM): 67.4%; viability, T/C (second compound 0.1 µM, first compound 0.000316 µM): 68.6%; viability, T/C (second compound 0.1 µM, first compound 0.001 µM): 55.7%; viability, T/C (second compound 0.1 µM, first compound 0.00316 µM): 48.5%; viability, T/C [26]: 46.1%; viability, T/C [1]: 25.5%; viability, T/C (second compound 0.316 µM, first compound 0.0001 µM): 74.9%; viability, T/C (second compound 0.316 µM, first compound 0.000316 µM): 63.1%; viability, T/C (second compound 0.316 µM, first compound 0.001 µM): 54.5%; viability, T/C (second compound 0.316 µM, first compound 0.00316 µM): 50.9%; viability, T/C [27]: 43.2%; viability, T/C [6]: 26.8%; viability, T/C (second compound 1 µM, first compound 0.0001 µM): 64.6%; viability, T/C (second compound 1 µM, first compound 0.000316 µM): 67.3%; viability, T/C (second compound 1 µM, first compound 0.001 µM): 52.3%; viability, T/C (second compound 1 µM, first compound 0.00316 µM): 44.3%; viability, T/C [28]: 40.8%; viability, T/C [11]: 22.9%; viability, T/C (second compound 3.16 µM, first compound 0.0001 µM): 56.5%; viability, T/C (second compound 3.16 µM, first compound 0.000316 µM): 52.6%; viability, T/C (second compound 3.16 µM, first compound 0.001 µM): 47.9%; viability, T/C (second compound 3.16 µM, first compound 0.00316 µM): 44.1%; viability, T/C [29]: 40%; viability, T/C [16]: 22.4%; viability, T/C (second compound 10 µM, first compound 0.0001 µM): 48.1%; viability, T/C (second compound 10 µM, first compound 0.000316 µM): 37.7%; viability, T/C (second compound 10 µM, first compound 0.001 µM): 38.4%; viability, T/C (second compound 10 µM, first compound 0.00316 µM): 29.8%; viability, T/C [30]: 31.1%; viability, T/C [21]: 18.3%

Which results are given for CC(=O)OC12COC1CC(O)C1(C)C(=O)C(O)C3=C(C)C(OC(=O)C(O)C(NC(=O)OC(C)(C)C)c4ccccc4)CC(O)(C(OC(=O)c4ccccc4)C21)C3(C)C (stereo not given) + COc1cc2nc(C)nc(NC(C)c3cc(N)cc(C(F)(F)F)c3)c2cc1OC1CCOC1?
IC50 (second compound 0.1 µM): < 10 nM; IC50 (second compound 0.316 µM): < 10 nM; IC50 (second compound 1 µM): < 10 nM; IC50 (second compound 3.16 µM): < 10 nM; IC50 (second compound 10 µM): < 10 nM; viability, T/C [26]: 8.2%; viability, T/C [1]: 6.47%; viability, T/C [2]: 7.11%; viability, T/C [3]: 7.15%; viability, T/C [4]: 9.33%; viability, T/C [5]: 13.3%; viability, T/C [27]: 7.68%; viability, T/C [6]: 5.72%; viability, T/C [7]: 6.66%; viability, T/C [8]: 6.34%; viability, T/C [9]: 9.71%; viability, T/C [10]: 13.2%; viability, T/C [28]: 7.84%; viability, T/C [11]: 5.99%; viability, T/C [12]: 6.32%; viability, T/C [13]: 6.76%; viability, T/C [14]: 8.86%; viability, T/C [15]: 11.6%; viability, T/C [29]: 10.3%; viability, T/C [16]: 5.59%; viability, T/C [17]: 6.6%; viability, T/C [18]: 6.36%; viability, T/C [19]: 9.6%; viability, T/C [20]: 12.6%; viability, T/C [30]: 6.87%; viability, T/C [21]: 6.05%; viability, T/C [22]: 7.37%; viability, T/C [23]: 9.15%; viability, T/C [24]: 13.1%; viability, T/C [25]: 11.8%

From PubChem BioAssay AID1963867 (Molecular Pharmacology Branch, DTP, NCI, 2024)
